The text below walks through data of US20100029689A1, “PHOSPHODIESTERASE 4 INHIBITORS” (MEMORY PHARMACEUTICALS CORPORATION, priority 2008, published 2010).

As for `COc1ccc(N(Cc2ccc(=O)[nH]c2)c2ccc(C(=O)O)cc2)cc1OC1CCCC1` [Compound 29], the melting point (as a rule, the temperature, or range, at which the solid turns liquid) lay in the range of 143.7 to 145.9 °C. For the compound `COc1ccc(N(Cc2cncs2)c2cccc(C(=O)O)c2)cc1OC1CCCC1` [Compound 35], the melting point was in the range of 65.6 to 70.6 °C. The result for `COc1ccc(N(Cc2cn[nH]c2)c2ccc(C(=O)O)cc2)cc1OC1CCCC1` [Compound 39] reads 108.9 to 112.3 °C; that for `COc1ccc(N(Cc2cncs2)c2ccc(C(=O)O)cc2)cc1OC1CCCC1` [Compound 40], 88 to 90.3 °C; that for `COc1ccc(N(Cc2cncnc2)c2ccc(C(=O)O)cc2)cc1OC1CCCC1` [Compound 43], 156.6 to 159.8 °C. The result for `COc1ccc(N(Cc2cscn2)c2cccc(C(=O)O)c2)cc1OC1CCCC1` [Compound 45] reads 75.5 to 77.7 °C; that for `COc1ccc(N(Cc2cccnn2)c2cccc(C(=O)O)c2)cc1OC1CCCC1` [Compound 48], 178.9 to 184.3 °C; that for `COc1ccc(N(CC2CCNCC2)c2cccc(C(=O)O)c2)cc1OC1CCCC1` [Compound 50], 228.8 to 232.1 °C. The compound `COc1ccc(N(Cc2cnc(N(C)C)nc2)c2ccc(C(=O)O)cc2)cc1OC1CCCC1` [Compound 51] yielded a melting point of 95.9 to 99.5 °C. With `COc1ccc(N(Cc2cnc(N(C)C)nc2)c2cccc(C(=O)O)c2)cc1OC1CCCC1` [Compound 52], the melting point was 82 to 84.7 °C. Compound `O=C(O)c1ccc(N(Cc2cncs2)c2ccc(OC(F)F)c(OC(F)F)c2)cc1` [Compound 59] came in with a melting point of 144.3 to 145.7 °C. `O=C(O)Cc1ccc(N(Cc2cccnc2)c2ccc(OC(F)F)c(OC(F)F)c2)cc1` [Compound 69] yielded a melting point of 107.4 to 108.1 °C. The result for `COc1ccc(N(Cc2cncs2)c2cccc(C(=O)O)c2)cc1O[C@@H]1CCOC1` [Compound 70] reads 60.3 to 61.9 °C; that for `COc1ccc(N(Cc2cncs2)c2ccc(C(=O)O)cc2)cc1O[C@@H]1CCOC1` [Compound 71], 60.3 to 60.8 °C.

In the case of `COc1ccc(N(Cc2cncs2)c2ccc(C(=O)O)cc2)cc1OCC1CC1` [Compound 72], the melting point lay in the range of 128.7 to 129.4 °C. The result for `COc1ccc(N(Cc2cncs2)c2cccc(C(=O)O)c2)cc1OCC1CC1` [Compound 73] reads 137.4 to 139.4 °C.

`O=C(O)c1ccc(N(Cc2cccnn2)c2ccc(OC(F)F)c(OC(F)F)c2)cc1` [Compound 74] gave a melting point of 162.6 to 164.8 °C. The result for `O=C(O)c1ccc(N(Cc2cncnc2)c2ccc(OC(F)F)c(OC(F)F)c2)cc1` [Compound 80] reads 186.7 to 187.4 °C.

Consider `CCOc1cc(N(Cc2cncs2)c2ccc(C(=O)O)cc2)ccc1OC(F)F` [Compound 99], for which the melting point was 67 to 69.3 °C.

Regarding `O=C(O)c1ccc(N(Cc2cncs2)c2ccc(OC(F)F)c(OC3CCCC3)c2)cc1` [Compound 104], the melting point lay in the range of 67.3 to 69.7 °C. The result for `CC(C)Oc1cc(N(Cc2cncs2)c2ccc(C(=O)O)cc2)ccc1OC(F)F` [Compound 106] reads 158 to 158.5 °C. For `CC(C)Oc1cc(N(Cc2cccnc2)c2ccc(C(=O)O)cc2)ccc1OC(F)F` [Compound 107], the melting point lay in the range of 66.5 to 67.9 °C.

As to `CC(C)Oc1cc(N(Cc2cccnc2)c2cccc(C(=O)O)c2)ccc1OC(F)F` [Compound 108], the melting point lay within 57.3 to 58.9 °C. The result for `CC(C)Oc1cc(N(Cc2cncs2)c2cccc(C(=O)O)c2)ccc1OC(F)F` [Compound 109] reads 58.6 to 60 °C; that for `O=C(O)c1cccc(N(Cc2cncs2)c2ccc(OC(F)F)c(OC3CCCC3)c2)c1` [Compound 110], 56.3 to 58 °C. The result for `COc1cc(N(Cc2cncs2)c2ccc(C(=O)O)cc2)ccc1OC(F)F` [Compound 120] reads 164.9 to 165.3 °C; that for `COc1cc(N(Cc2cccnc2)c2ccc(C(=O)O)cc2)ccc1OC(F)F` [Compound 124], 182.4 to 183.4 °C. `CCCCOc1cc(N(Cc2cccnc2)c2ccc(C(=O)O)cc2)ccc1OC(F)F` [Compound 128]: the melting point is 133.7 to 135.1 °C. The result for `CCCCOc1cc(N(Cc2cncs2)c2ccc(C(=O)O)cc2)ccc1OC(F)F` [Compound 129] reads 158.7 to 159.5 °C. The result for `CCOc1cc(N(Cc2cncs2)c2ccc(C(=O)O)cc2)ccc1OC` [Compound 130] reads 73.1 to 74.5 °C; that for `COc1ccc(N(Cc2cncs2)c2ccc(C(=O)O)cc2)cc1OC(C)C` [Compound 131], 67.8 to 69.1 °C.

The compound `COc1ccc(N(Cc2cncs2)c2ccc(C(=O)O)cc2)cc1OC` [Compound 138] showed a melting point of 86.4 to 88.3 °C. The result for `O=C(O)c1ccc(N(Cc2cnco2)c2ccc(OC(F)F)c(OC(F)F)c2)cc1` [Compound 141] reads 132.4 to 135 °C; that for `O=C(O)c1ccc(N(Cc2cnccn2)c2ccc(OC(F)F)c(OC(F)F)c2)cc1` [Compound 142], 158 to 161.1 °C. The result for `CCOc1cc(N(Cc2cncnc2)c2ccc(C(=O)O)cc2)ccc1OC(F)F` [Compound 143] reads 165.3 to 165.9 °C; that for `CCOc1cc(N(Cc2cnco2)c2ccc(C(=O)O)cc2)ccc1OC(F)F` [Compound 144], 111.1 to 113 °C; that for `COc1ccc(N(Cc2cncs2)c2cccc(C(=O)O)c2)cc1OC(F)F` [Compound 149], 86.4 to 88.3 °C.

`COc1ccc(N(Cc2cncs2)c2ccc(C(=O)O)cc2)cc1OC(F)F` [Compound 150] had a melting point of 86.4 to 88.3 °C. `COc1cc(N(Cc2cncnc2)c2ccc(C(=O)O)cc2)ccc1OC(F)F` [Compound 153] gave a melting point of 191.3 to 191.5 °C. `COc1cc(N(Cc2cnccn2)c2ccc(C(=O)O)cc2)ccc1OC(F)F` [Compound 154] showed a melting point of 157.2 to 157.7 °C. On to `CC(C)Oc1cc(N(Cc2cnccn2)c2ccc(C(=O)O)cc2)ccc1OC(F)F` [Compound 155], for which the melting point was 132.3 to 135.7 °C. `CC(C)Oc1cc(N(Cc2cnccn2)c2cccc(C(=O)O)c2)ccc1OC(F)F` [Compound 156] returned a melting point of 81.2 to 82 °C. The result for `O=C(O)c1ccc(N(Cc2cnccn2)c2ccc(OC(F)F)c(OCC3CC3)c2)cc1` [Compound 157] reads 81.2 to 82.3 °C; that for `O=C(O)c1cccc(N(Cc2cnccn2)c2ccc(OC(F)F)c(OCC3CC3)c2)c1` [Compound 159], 72.7 to 73.1 °C; that for `CC(C)Oc1cc(N(Cc2cncs2)c2cncc(C(=O)O)c2)ccc1OC(F)F` [Compound 160], 121.7 to 123.1 °C.

`CNS(=O)(=O)c1ccc(N(Cc2cncs2)c2ccc(OC(F)F)c(OC(F)F)c2)cc1` [Compound 165] showed a melting point of 105.5 to 106.4 °C.

Turning to `O=C(O)c1ccc(N(Cc2cncnc2)c2ccc(OC(F)F)c(OCC3CC3)c2)cc1` [Compound 168], the melting point lay in the range of 265.1 to 266.6 °C.

`CCOc1ccc(N(Cc2cncs2)c2ccc(C(=O)O)cc2)cc1OCC` [Compound 170] displayed a melting point of 77 to 79 °C. The compound `COc1ccc(N(Cc2cnco2)c2ccc(C(=O)O)cc2)cc1OC(C)C` [Compound 180] yielded a melting point of 60.3 to 61 °C.

`CCOc1cc(N(Cc2cnco2)c2ccc(C(=O)O)cc2)ccc1OC` [Compound 181] gave a melting point of 175.6 to 176.9 °C. The result for `COc1ccc(N(Cc2cnco2)c2ccc(C(=O)O)cc2)cc1OCC1CC1` [Compound 183] reads 160 to 161.7 °C; that for `COc1ccc(N(Cc2cnco2)c2ccc(C(=O)O)cc2)cc1OC1CCC1` [Compound 184], 148 to 150.3 °C. `COc1cc(N(Cc2cncnc2)c2ccc(C(=O)O)cc2)ccc1OCC(F)(F)F` [Compound 186] returned a melting point of 208.7 to 209.9 °C. The result for `COc1ccc(N(Cc2cncnc2)c2ccc(C(=O)O)cc2)cc1OC(C)C` [Compound 192] reads 181.7 to 183.6 °C; that for `COc1ccc(N(Cc2cncnc2)c2ccc(C(=O)O)cc2)cc1OC1CCC1` [Compound 193], 174 to 177.9 °C; that for `COc1ccc(N(Cc2cncnc2)c2ccc(C(=O)O)cc2)cc1OCC1CC1` [Compound 195], 185.6 to 187.2 °C.

As to `CCOc1cc(N(Cc2cncnc2)c2ccc(C(=O)O)cc2)ccc1OC` [Compound 196], the melting point was in the range of 190.9 to 191.9 °C. `O=C(O)c1cccc(N(Cc2cnco2)c2ccc(OC(F)F)c(OCC3CC3)c2)c1` [Compound 198]: the melting point lay in the range of 60.2 to 61 °C. The result for `CCOc1cc(N(Cc2cnco2)c2cccc(C(=O)O)c2)ccc1OC` [Compound 200] reads 158 to 159.8 °C.

`O=C(O)c1ccc(N(Cc2cncnc2)c2ccc(OC(F)F)c(OC3CCC3)c2)cc1` [Compound 205] yielded a melting point of 135.1 to 136.3 °C.

On to `O=C(O)c1ccc(N(Cc2cncnc2)c2ccc(OC(F)F)c(OCc3ccccc3)c2)cc1` [Compound 214], for which the melting point fell in the range of 157.4 to 158.2 °C.

`CCOc1cc(N(Cc2cnc(C)s2)c2ccc(C(=O)O)cc2)ccc1OC(F)F` [Compound 225] displayed a melting point of 73.1 to 74.1 °C. The result for `COc1ccc(N(Cc2cccnc2)c2cccc(C3NC(=O)NC3=O)c2)cc1OC1CCCC1` (stereo not shown) [Compound 239] reads 99.7 to 105 °C; that for `COc1ccc(N(Cc2cccnc2)c2ccc(C3NC(=O)NC3=O)cc2)cc1OC1CCCC1` (stereo not shown) [Compound 245], 108 to 112.5 °C; that for `O=C1NC(=O)C(c2cccc(N(Cc3cncs3)c3ccc(OC(F)F)c(OC(F)F)c3)c2)N1` (stereo not shown) [Compound 257], 63.1 to 82.3 °C. `CCOc1cc(-c2ncc(CN(c3ccc(C(=O)O)cc3)c3ccc(OC(F)F)c(OCC)c3)o2)ccc1OC(F)F` [Compound 273] had a melting point of 178.4 to 178.9 °C.

In turn, `CCOc1cc(N(Cc2cccnc2)c2ccc(C(=O)O)cc2)ccc1OC(F)F` [Example 11, 4-[(4-Difluoromethoxy-3-ethoxy-phenyl)-pyridin-3-ylmethyl-amino]-benzoic acid] displayed a melting point of 177.6 to 178.9 °C.
